Data published in patent US20180363025A1, “T[…] FOR GUT INFLAMMATION” (William Marsh Rice University, priority 2015, published 2018).
“Also recorded” adds a separate entry of the source.

What was measured:
Shal_3128/9 [1] = test: Ligand competition assay, sensor response to thiosulfate in presence of other TEAs; type: cell-based, Shewanella halifaxensis; conditions: 5 mM thiosulfate plus 10 mM other TEA; FIG. 3E
Method: FIG. 3A-F. Characterization of the thiosulfate-sensing proteins: Shal_3128/9. (3A) The S. halifaxensis genomic region containing the thiosulfate reductase operon (Shal_3125-7) and neighboring thiosulfate-sensing TCS (Shal_3128/9). (3B) Plasmid design of the inducible thiosulfate sensor. […] (3D) Selectivity of Shal_3128/9 to thiosulfate over other terminal electron acceptors. All TEAs were tested at 10 mM concentration. (3E) Ligand competition assay. Sensor performance at 5 mM thiosulfate was tested in the presence of 10 mM other TEAs, and a decrease in response indicates inhibition by the added ligand. (3F) Inhibition curve of tetrathionate (filled circles) and sulfite (open squares) in the presence of 5 mM thiosulfate.

thiosulfate sensor = test: Effect of DSS on GFP output of optimized thiosulfate sensor; type: cell-based, Shewanella halifaxensis; conditions: 3% DSS; optimized constitutive sensor in E. coli Nissle; FIG. 4D
Excerpt: FIG. 4A-D. Sensor optimization for thiosulfate detection in the gut. (4A) Changes made between the initial characterization constructs and in vivo optimized sensor. (4B) Layout of sensor components on the final two plasmid expression system. (4C) Normalized dose-response behavior of thiosulfate sensors. Shown is the original, inducible, BW28357 strain grown aerobically (closed circles), and the selected constitutive promoter strain in Nissle grown aerobically (closed squares) and anaerobically (open squares). A shift in half-maximal response indicates sensitivity to oxygen. (4D) Dynamic range of optimized thiosulfate sensors. GFP output is shown in the absence (grey bars) and presence of 5 mM thiosulfate or 1 mM tetrathionate, respectively (black bars).

Shal_3128/9 [2] = conditions: TEAs tested at 10 mM; E. coli BW28357 expressing Shal_3128/9; FIG. 3D
Excerpt: The sensor kinase was expressed from a p15A medium-copy expression vector with spectinomycin resistance. Production of Shal_3128 was driven by the Ptac promoter and a designed synthetic RBS (predicted strength 1,000), which was induced by IPTG and regulated by constitutively expressed LacI. Transcription of Shal_3128, LacI, and Spec^R was terminated by the B0015, T1, and T0 terminators, respectively.
The response regulator and rewired output promoter driving GFP production were on a ColE1 high-copy expression vector with chloramphenicol resistance. Shal_3129 production was regulated by constitutively expressed TetR at the PLTetO-1 aTc-inducible promoter with a synthetic RBS (predicted strength 1,000). […] Production of sfGFP was regulated by output of the PShal_3127 promoter using the B0034 RBS, which provides a visual readout of Shal_3128/9 activity. Transcription of Shal_3129, sfGFP, TetR, and Cm^R was terminated by the B0015, B0015, T1, and T0 terminators, respectively.
Both plasmids were transformed into the BW28357 E. coli strain, available from The Coli Genetic Stock Center (CGSC#: 7991, F−, Δ(araD-araB)567, ΔlacZ4787(TrnB-3); lambda^−, Δ(rhaD-rhaB)568, hsdR514).

thiosulfate sensor, sequence (as listed by the source): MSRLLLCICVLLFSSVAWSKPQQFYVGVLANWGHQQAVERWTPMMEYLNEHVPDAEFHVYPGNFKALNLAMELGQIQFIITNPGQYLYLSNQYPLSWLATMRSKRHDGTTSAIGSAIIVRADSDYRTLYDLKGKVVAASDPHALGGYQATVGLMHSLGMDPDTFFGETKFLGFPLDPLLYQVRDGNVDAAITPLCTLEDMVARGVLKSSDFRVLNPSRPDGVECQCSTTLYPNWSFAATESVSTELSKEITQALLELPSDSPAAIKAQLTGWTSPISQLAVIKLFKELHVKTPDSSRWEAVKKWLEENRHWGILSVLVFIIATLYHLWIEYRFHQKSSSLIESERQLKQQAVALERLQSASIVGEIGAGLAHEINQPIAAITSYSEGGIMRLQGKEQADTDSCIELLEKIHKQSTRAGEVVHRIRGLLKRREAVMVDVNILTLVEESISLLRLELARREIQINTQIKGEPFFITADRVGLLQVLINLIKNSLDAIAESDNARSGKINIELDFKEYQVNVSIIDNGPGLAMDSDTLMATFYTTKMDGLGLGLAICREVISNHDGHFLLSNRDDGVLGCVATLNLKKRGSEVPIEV
thiosulfate sensor, sequence (as listed by the source partner): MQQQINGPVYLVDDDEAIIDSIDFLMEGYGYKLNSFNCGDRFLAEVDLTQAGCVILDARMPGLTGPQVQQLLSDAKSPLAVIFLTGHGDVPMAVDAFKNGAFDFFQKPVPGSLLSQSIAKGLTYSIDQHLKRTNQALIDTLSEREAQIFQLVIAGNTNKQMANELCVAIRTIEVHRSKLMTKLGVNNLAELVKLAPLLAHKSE

| Compound | competition (inhibition of thiosulfate response) (Shal_3128/9 [1]) | other results |
| --- | --- | --- |
| O=S(=O)(O)SSS(=O)(=O)O [tetrathionate] | modest level of competition | – |
| Dextran Sodium Sulfate [DSS] | – | activation or inhibition of sensor signaling (thiosulfate sensor): does not activate or inhibit signaling; also recorded: does not appear to be sensitive |
| O=S(O)O [sulfite] | modest level of competition | – |
| O=S(O)(O)=S [thiosulfate] | – | stimulation of production of reporter protein GFP (Shal_3128/9 [2]): effectively stimulated production of reporter protein GFP |
